The results in this text go back to patent US20110212909A1, “Use of Ginsenoside Compound K in the Preparation of a Medicament for the Prevention and Treatment of Atherosclerosis” (priority 2008, published 2011).

Marks after values point to notes of the source that are not given here.

Common to all, as to assay type: in vivo
Holding throughout (conditions): apo E−/− mice, 15 weeks

For one assay, the system named is perilipin mRNA. Briefly: Real-time quantitative PCR of perilipin mRNA in apo E−/− mouse aorta.
The test system of a further assay is LXRα mRNA. As to the kind of experiment: Real-time quantitative PCR of LXRα mRNA in apo E−/− mouse aorta. As for the experimental part: (§1) 80 healthy clean grade C57BL/6J apo E^−/^− mice of 10 weeks old, wherein male and female mice were fifty-fifty, weight 20-22 g, were breed and divided into individual cage in sterile laminar flow rack, allowing mice to freely drink water and get food. Mice were raised for 30 weeks by “Western Diet” (routine mouse feed +0.15% cholesterol +21% fat) high fat feed (^60cobalt sterilization radiation treatment), with raising conditions being SPF grade, room temperature maintained at 24° C., relative humidity of 50%, and lighting time of 7: 30-19: 30. Animal house was sterilized by ultraviolet lamp once every two days, in order to maintain sterile environment of laminar flow rack (establishment of animal model of atherosclerosis refers to reference: Barish G D, Atkins A R, Downes M, Olson P, Chong L W, Nelson M, Zou Y H, Hwang H S, Kang H J, Curtiss L, Evans R M, Lee C H. PPARδ regulates multiple proinflammatory pathways to suppress atherosclerosis. Proc Natl Acad Sci, 2008, 105 (11): 4271-4276.).
(§2) 5 mice of apo E^−/^− mice raised for 15 weeks were randomly selected and sacrificed, root of aorta of which was taken, and replication condition in AS model was observed by HE staining. The remaining mice were randomly divided into 5 groups as follows (n=15): […]
(§3) Above drugs were firstly solved in DMSO, then suspended in 0.5% carboxymethylcellulose solution, mixed homogeneously, and then were administered via gavage, once a day. Mice were weighted once a week, and ingestion amounts were recorded, and drug doses were adjusted according to weight, interfering for 15 weeks. […]
(§4) • blood fat assay: TC, TG, HDL-C, and LDL-C concentrations in serum were determined by applying Olympus Au2700 fully automatic biochemical appearance. • serum inflammatory markers assay: hs-CRP and sCD40L concentrations were determined by applying double antibody sandwich ELISA, in accordance with ELISA kit operating instruction (hs-CRP ELISA kit bought from Herrenberg company, Germany; sCD40L ELISA kit bought from Bender Medsystems company, Austria). • real-time quantitative PCR analysis was carried out on expression of CD36, perilipin, ABCA1, LXRα, MMP-9 and NF-κ B mRNA in apo E^−/^− mouse aorta (a reference method: Zhang Yiguan, Li Xiaohui, Fan Jishan, Zhang Haigang, Li Shuhui, Liao Wenqiang, Pang Yan, Jia Yi. […] 2007, 27 (11): 1601-1607)0 • morphology index image analysis: When slices were HE stained, under X40 fold ordinary light microscope, artery atherosclerosis plaque area of each incisal surface was determined by “Image Pro Plus 5.0” image analysis software. […] As to Masosn staining, aortic root collagen area (CA) was measured by “Image Pro Plus 5.0” image analysis software, and collagen vessel area ratio (CA/CVA) was calculated. […]

In the next assay the test system is MMP-9 mRNA. As to the kind of experiment: Real-time quantitative PCR of MMP-9 mRNA in apo E−/− mouse aorta. As for the experimental part:
as §1, §2, §3, §4

Assay [1] relates to AS plaque in apo E−/− mouse aorta. As to the kind of experiment: Morphology index image analysis of AS plaque at aortic root (HE and MASSON staining). The protocol:
as §1
5 mice of apo E^−/^− mice raised for 15 weeks were randomly selected and sacrificed, root of aorta of which was taken, and replication condition in AS model was observed by HE staining. The remaining mice were randomly divided into 5 groups as follows (n=15):
A. model group: vehicle; B. ginsenoside compound K low dose group: ginsenoside compound K 12.5 mg/kg/day; C. ginsenoside compound K middle dose group: ginsenoside compound K 25.0 mg/kg/day; D. ginsenoside compound K high dose group: ginsenoside compound K 50.0 mg/kg/day; E. simvastatin control group: simvastatin 10.0 mg/kg/day.
Above drugs were firstly solved in DMSO, then suspended in 0.5% carboxymethylcellulose solution, mixed homogeneously, and then were administered via gavage, once a day. Mice were weighted once a week, and ingestion amounts were recorded, and drug doses were adjusted according to weight, interfering for 15 weeks. All the animal were sacrificed in 30th week.
Tissues of apo E^−/^− mice were sliced for AS plaque pathology: blood of eye sockets venous plexus of apo E−/− mice was sampled before the mice was sacrificed by cervical dislocation, and aorta was fixed by converse infusion of physiological saline comprising 4% paraformaldehyde into left ventricle, and then whole aorta was cut off from root of aorta to terminal end of abdomen aorta. Root of aorta was taken, and embedded routinely by paraffin, and slices of thickness of 5 μm were continuously cut off from root of aorta, and were subjected separately to HE staining, and MASSON staining, and then were utilized for AS plaque morphological index analysis of aortic valve cross section.
Pathological staining: […]sequent 2 pieces of slices were picked up from each incisal surface of sequent paraffin slices of aorta root per mouse, and were separately subjected to HE staining, and MASSON staining, and were observed under light microscope. […]remaining aorta was stained by Sudan IV, and was observed under light microscope.
• blood fat assay: TC, TG, HDL-C, and LDL-C concentrations in serum were determined by applying Olympus Au2700 fully automatic biochemical appearance. • serum inflammatory markers assay: hs-CRP and sCD40L concentrations were determined by applying double antibody sandwich ELISA, in accordance with ELISA kit operating instruction (hs-CRP ELISA kit bought from Herrenberg company, Germany; sCD40L ELISA kit bought from Bender Medsystems company, Austria). • real-time quantitative PCR analysis was carried out on expression of CD36, perilipin, ABCA1, LXRα, MMP-9 and NF-κ B mRNA in apo E^−/^− mouse aorta (a reference method: Zhang Yiguan, Li Xiaohui, Fan Jishan, Zhang Haigang, Li Shuhui, Liao Wenqiang, Pang Yan, Jia Yi. Total panax notoginsenosides suppress atherosclerosis formation in rats by means of antiinflammatory and blood fat regulating action. Progress in Modern Biomedicine. […]

Setting [2] is: C-K high dose 50.0 mg/kg/day gavage.
[3] abbreviates: C-K middle dose 25.0 mg/kg/day gavage.
[4] abbreviates: simvastatin 10.0 mg/kg/day gavage.

Source text for perilipin mRNA: Total RNA sample of root of aorta of apo E^−/^− mouse: Total RNA samples of root of aorta in each group mouse were extracted, and utilized for analysis of gene expression of various lipid metabolic factors, inflammatory factors, and nucleic transcription factors associated with AS plaque development.

For `CC(C)=CCC[C@](C)(OC1OC(CO)C(O)C(O)C1O)C1CC[C@]2(C)C1[C@H](O)CC1[C@@]3(C)CC[C@H](O)C(C)(C)C3CC[C@]12C` (stereo partly drawn) [C-K, 20-O-β-D-glucopyranosyl 20-(S)-protopanaxadiol], the “expression of perilipin mRNA in aorta (relative concentrations)” value in the assay on perilipin mRNA (setting [2]) is recorded as 0.51 ± 0.54^a; in the assay on perilipin mRNA (C-K low dose 12.5 mg/kg/day gavage, model 1.08 ± 0.06), 0.68 ± 0.56^a; in the assay with perilipin mRNA (setting [3]), 0.60 ± 0.49^a. The “expression of LXRα mRNA in aorta (relative concentrations)” value is reported as 1.36 ± 0.06^b in the assay on LXRα mRNA (setting [2]); 1.26 ± 0.05^b with LXRα mRNA (C-K low dose 12.5 mg/kg/day gavage, model 0.87 ± 0.06); 1.33 ± 0.05^b with LXRα mRNA (setting [3]). The “expression of MMP-9 mRNA in aorta (relative concentrations)” value was 0.67 ± 0.13^b in the assay with MMP-9 mRNA (setting [2]); 0.87 ± 0.12^b with MMP-9 mRNA (C-K low dose 12.5 mg/kg/day gavage, model 1.15 ± 0.12); 0.78 ± 0.11^b in the assay with MMP-9 mRNA (setting [3]). Moreover, the “CA (aortic root collagen area)” value in assay [1] (setting [2]) is given as 0.69 ± 0.13^b mm^2; in assay [1] (C-K low dose 12.5 mg/kg/day gavage, model 0.39 ± 0.13), 0.56 ± 0.14^b mm^2; in assay [1] (setting [3]) it was 0.62 ± 0.09^b mm^2. In addition, the “CA/CVA (corrected collagen area)” value in assay [1] (setting [2]) is 42.40 ± 6.74^b %; in assay [1] (C-K low dose 12.5 mg/kg/day gavage, model 22.60 ± 5.41), 33.33 ± 4.37^b %; in assay [1] (setting [3]), 36.08 ± 4.82^b %. In addition, the “CVA (vessel cross section area)” value in assay [1] (setting [2]) amounted to 1.62 ± 0.12 mm^2; in assay [1] (C-K low dose 12.5 mg/kg/day gavage, model 1.70 ± 0.19), 1.68 ± 0.16 mm^2; in assay [1] (setting [3]), 1.71 ± 0.14 mm^2. Further, the “LCA (lipid core area)” value is reported as 0.21 ± 0.03^b mm^2 in assay [1] (setting [2]); 0.32 ± 0.05^b mm^2 in assay [1] (C-K low dose 12.5 mg/kg/day gavage, model 0.44 ± 0.05); 0.29 ± 0.05^b mm^2 in assay [1] (setting [3]). Moreover, the “LCA/PA (corrected lipid core area)” value was 40.01 ± 1.94^b % in assay [1] (setting [2]); 41.03 ± 1.32^b % in assay [1] (C-K low dose 12.5 mg/kg/day gavage, model 48.28 ± 2.71); 40.33 ± 1.18^b % in assay [1] (setting [3]). Further, the “PA (plaque area)” value is reported as 0.52 ± 0.10^b mm^2 in assay [1] (setting [2]); 0.78 ± 0.13^a mm^2 in assay [1] (C-K low dose 12.5 mg/kg/day gavage, model 0.90 ± 0.12); 0.72 ± 0.12^a mm^2 in assay [1] (setting [3]). In addition, the “PA/CVA (corrected plaque area)” value in assay [1] (setting [2]) is 32.29 ± 6.29^b %; in assay [1] (C-K low dose 12.5 mg/kg/day gavage, model 53.82 ± 10.02) it was 46.43 ± 7.38^a %; in assay [1] (setting [3]), 42.26 ± 8.35^a %. Moreover, the “mFCT (minimal fibrous cap thickness)” value in assay [1] (setting [2]) is listed as 30.65 ± 1.37^b μm; in assay [1] (C-K low dose 12.5 mg/kg/day gavage, model 20.40 ± 3.31), 28.48 ± 1.89^b μm; in assay [1] (setting [3]) it was 30.44 ± 1.75^b μm.
Consider `CCC(C)(C)C(=O)O[C@H]1C[C@@H](C)C=C2C=C[C@H](C)[C@H](CC[C@@H]3C[C@@H](O)CC(=O)O3)[C@H]21` [simvastatin, reference compound], for which the “expression of perilipin mRNA in aorta (relative concentrations)” value with perilipin mRNA (setting [4]) is on record as 0.23 ± 1.32^b. For the same compound, the “expression of LXRα mRNA in aorta (relative concentrations)” value in the assay with LXRα mRNA (setting [4]) worked out at 0.95 ± 0.07. For the same compound, in the assay with MMP-9 mRNA (setting [4]), the “expression of MMP-9 mRNA in aorta (relative concentrations)” value is reported as 0.94 ± 0.14^a. In addition, in assay [1] (setting [4]), the “CA (aortic root collagen area)” value is on record as 0.57 ± 0.08^a mm^2, the “CA/CVA (corrected collagen area)” value is listed as 34.73 ± 4.49^b %, the “CVA (vessel cross section area)” value is on record as 1.65 ± 0.11 mm^2 and the “LCA (lipid core area)” value is 0.32 ± 0.04^b mm^2. Further, in assay [1] (setting [4]), the “LCA/PA (corrected lipid core area)” value is reported as 43.39 ± 4.01^b %, the “PA (plaque area)” value is given as 0.74 ± 0.17 mm^2, the “PA/CVA (corrected plaque area)” value is recorded as 44.70 ± 8.44^a % and the “mFCT (minimal fibrous cap thickness)” value is recorded as 27.72 ± 2.30^b μm.
